Test results as given in US20040044006A1, “Methods of use of quinolone compounds against pneumococcal and haemophilus bacteria” (priority 1999, published 2004).
Values after ≈ are worked out from the molar mass of the structure shown. Read-outs that look alike come from different tables or passages of the source.

How the values were obtained:
[1] = system: quinolone susceptible pneumococci (ciprofloxacin MICs ≦4.0 μg/ml); assay: Agar dilution MICs of 207 quinolone susceptible pneumococcal strains; type: cell-based, Streptococcus pneumoniae; details: agar dilution; for MIC: read-out: MIC range
Method: All susceptible, and some intermediate and resistant strains, were recent U.S. isolates. The remainder of intermediate and resistant strains were isolated in South Africa, Spain, France, Central and Eastern Europe, and Korea. […] Additionally these strains were tested for mutations in parC, gyrA, parE, and gyrB (Pan, et al., Antimicrob. Agents Chemother. 40:2321-2326, 1996) and for efflux mechanism (Brenwald, et al., Antimicrob. Agents Chemother. 42:2032-2035, 1998). For time-kill studies, 4 penicillin susceptible, 4 intermediate and 4 resistant strains (2 quinolone resistant) were tested, while for PAE studies 5 quinolone susceptible and 1 resistant strains were studied.
(§1) Agar dilution methodology was performed on 234 strains as described previously (M. R. Jacobs, Clin. Infect. Dis. 15:119-127, 1992; Jacobs, et al., Rev. Med. Microbiol. 6:77-93, 1995), using Mueller-Hinton agar (BBL Microbiology Systems, Cockeysville, Md.) supplemented with 5% sheep blood. Broth MICs for 12 strains tested by time-kill and 6 tested by PAE were performed according to NCCLS recommendations (Methods for Dilution Antimicrobial Susceptibility Tests for Bacteria that Grow Aerobically, 3rd Edition, NCCLS, Villanova, Pa.) using cation-adjusted Mueller-Hinton broth with 5% lysed defibrinated horse blood. Standard quality control strains, including Streptococcus pneumoniae ATCC 49619, were included in each run of agar and broth dilution MICs.

pneumococcal strains = assay: Microbroth dilution MICs of strains tested by time-kill and PAE; type: cell-based; details: Streptococcus pneumoniae, read-out: Microdilution MIC
Method: as §1

[2] = system: pneumococci (5 quinolone susceptible and 1 resistant strains); assay: Post-antibiotic effect (PAE) testing; type: cell-based, Streptococcus pneumoniae; details: 10×MIC; range over strains
Method: The post-antibiotic effect (PAE) (Craig, et al., V. Lorian (ed.) Antibiotics in Laboratory Medicine, Williams and Wilkins, Baltimore, pages 296-399, 1996) was determined by the viable plate count method, using Mueller-Hinton broth (MHB) supplemented with 5% lysed horse blood when testing pneumococci. […] Additionally, the one quinolone resistant strain was exposed at quinolone concentrations 5×MIC. Tubes containing 5 ml broth with antibiotic were inoculated with approximately 5×10^6 cfu/ml. Growth controls with inoculum but no antibiotic were included with each experiment. Tubes were placed in a shaking water bath at 35° C. for 1 h. At the end of the exposure period, cultures were diluted 1:1000 to remove antibiotic.
Viability counts were determined before exposure and immediately after dilution (0 h), and then every 2 h until tube turbidity reached a #1 McFarland standard. Inocula were prepared by suspending growth from an overnight blood agar plate in broth. The broth was incubated at 35° C. for 2-4 h in a shaking water bath until turbidity matched a #1 McFarland standard, and checked for viability by plate counts (Spangler, et al., Antimicrob. Agents Chemother. 41:2173-9176, 1997; Spangler, et al., Antimicrob. Agents Chemother. 42:1253-1255, 1998).
The PAE was defined as PAE=T-C; T=time required for viability counts of an antibiotic-exposed culture to increase by 1 log10 above counts immediately after dilution; C=corresponding time for growth control. For each experiment, viability counts (log10 cfu/ml) were plotted against time, and results expressed as the mean of two separate assays±S D (Craig, et al., V. Lorian (ed), Antibiotics in Laboratory Medicine, Williams and Wilkins, Baltimore, pages 296-329, 1996).

[3] = system: quinolone-resistant Haemophilus influenzae strains; assay: Microdilution MIC determination in HTM for quinolone-resistant Haemophilus influenzae strains; type: cell-based
Method: Inocula were prepared from chocolate agar plates incubated for a full 24 hours by the direct colony suspension method as follows: In a tube of Mueller-Hinton broth (Difco), an organism suspension was made to a density of a 0.5 McFarland standard (1×10^8 CFU/ml). The latter inoculum was diluted in sterile saline such that final organisms suspensions in trays yielded colony counts of 3-8×10^5 CFU/ml. Frozen microdilution trays were obtained from MicroMedia Systems, Inc. (Cleveland, Ohio, USA). Each tray contained all antimicrobials prepared in freshly made HTM. Wells were inoculated with 100 μl suspensions and incubated in ambient air at 35° C. for 20-24 hours. The lowest drug concentration showing no growth was read as the MIC. Standard quality control strains, including H. influenzae ATCC 49766, H. influenzae ATCC 49247, Staphylococcus aureus ATCC 29213 and Escherichia coli ATCC 25922 were included with each run.

[4] = Streptococcus pneumoniae, Penicillin I strains, read-out: MIC90
[5] = Streptococcus pneumoniae, Penicillin R strains
[6] = Streptococcus pneumoniae, Penicillin R strains, read-out: MIC90
[7] = Streptococcus pneumoniae, Penicillin S strains, read-out: MIC90
[8] = strain 1 (S) penicillin susceptible
[9] = strain 2 (S) penicillin susceptible
[10] = strain 3 (S) penicillin susceptible, quinolone-resistant
[11] = strain 5 (I) penicillin intermediate
[12] = strain 6 (I) penicillin intermediate
[13] = strain 9 (R) penicillin resistant
[14] = strain 12 (R) penicillin resistant
[15] = Streptococcus pneumoniae, Penicillin I strains
[16] = Streptococcus pneumoniae, Penicillin S strains
[17] = strain 4 (S) penicillin susceptible, quinolone-resistant
[18] = strain 7 (I) penicillin intermediate
[19] = strain 8 (I) penicillin intermediate
[20] = strain 11 (R) penicillin resistant

Compound	MIC90 [1, 4] [µg/mL]	MIC50 [1, 5] [µg/mL]	MIC90 [1, 6] [µg/mL]	MIC90 [1, 7] [µg/mL]	MIC90 ([1]; Penicillin R strains) [µg/mL]	MIC (pneumococcal strains; [8]) [µg/mL]	MIC (pneumococcal strains; [9]) [µg/mL]	MIC (pneumococcal strains; [10]) [µg/mL]	MIC (pneumococcal strains; [11]) [µg/mL]	MIC (pneumococcal strains; [12]) [µg/mL]	MIC (pneumococcal strains; [13]) [µg/mL]	MIC (pneumococcal strains; strain 10 (I)) [µg/mL]	MIC (pneumococcal strains; [14]) [µg/mL]	PAE for non-quinolone compounds [2] [h]	MIC50 [1, 15] [µg/mL]	MIC50 [1, 16] [µg/mL]	MIC (pneumococcal strains; [17]) [µg/mL]	MIC (pneumococcal strains; [18]) [µg/mL]	MIC (pneumococcal strains; [19]) [µg/mL]	MIC (pneumococcal strains; [20]) [µg/mL]	other results
CC[C@H]1OC(=O)[C@H](C)[C@@H](O[C@H]2C[C@@](C)(OC)[C@@H](O)[C@H](C)O2)[C@H](C)[C@@H](O[C@@H]2O[C@H](C)C[C@H](N(C)C)[C@H]2O)[C@](C)(O)C[C@@H](C)CN(C)[C@H](C)[C@@H](O)[C@]1(C)O [Azithromycin, azithromycin]	> 128	4 (≈ 5.34 µM)	> 128	0.5 (≈ 0.668 µM)	>128.0	0.008 (≈ 0.0107 µM)	0.06 (≈ 0.0801 µM)	> 64	> 64	0.03 (≈ 0.0401 µM)	> 64	> 64	> 64	1.3 to 3.0							MIC90 ([1]; Penicillin I strains): >128.0 µg/mL
O=C(O)c1cn(C2CC2)c2cc(N3CCNCC3)c(F)cc2c1=O [Cipro]																					MIC ([3]; Haemophilus influenzae, strain 1, mutations S133-A N138-S, None, S84-L): 0.5 µg/mL (≈ 1.51 µM); MIC ([3]; Haemophilus influenzae, strain 2, mutations NONE, S458-L, S84-F, None): 0.25 µg/mL (≈ 0.754 µM); MIC ([3]; Haemophilus influenzae, strain 3, mutations S84-I, None, S84-L): 1 µg/mL (≈ 3.02 µM); MIC ([3]; Haemophilus influenzae, strain 4, mutations D83-N, S458-S-T459, S84-F D88-N, Q468-R): 1 µg/mL (≈ 3.02 µM); MIC ([3]; Haemophilus influenzae, strain 5, mutations E88-K, G405-S, S84-Y, None): 1 µg/mL (≈ 3.02 µM); MIC ([3]; Haemophilus influenzae, strain 6, mutations S84-R, D420-N, S84-L A117-E, None): 2 µg/mL (≈ 6.04 µM); MIC ([3]; Haemophilus influenzae, strain 7, mutations S84-R, D420-N, S84-L A117-E, None): 2 µg/mL (≈ 6.04 µM); MIC ([3]; Haemophilus influenzae, strain 8, mutations S84-R, D420-N, S84-L A117-E, None): 2 µg/mL (≈ 6.04 µM); MIC ([3]; Haemophilus influenzae, strain 9, mutations S84-R N138-S, S458-A S474-N, S84-F D88-Y, None): 8 µg/mL (≈ 24.1 µM)
CC1(C)S[C@@H]2[C@H](NC(=O)Cc3ccccc3)C(=O)N2[C@H]1C(=O)O [Penicillin, penicillin G]	1 (≈ 2.99 µM)	4 (≈ 12 µM)	4 (≈ 12 µM)	0.03 (≈ 0.0897 µM)		0.06 (≈ 0.179 µM)	0.03 (≈ 0.0897 µM)	0.016 (≈ 0.0478 µM)	0.25 (≈ 0.748 µM)	0.25 (≈ 0.748 µM)	4 (≈ 12 µM)	2 (≈ 5.98 µM)	4 (≈ 12 µM)		0.25 (≈ 0.748 µM)	0.016 (≈ 0.0478 µM)	0.016 (≈ 0.0478 µM)	1 (≈ 2.99 µM)	0.5 (≈ 1.5 µM)	4 (≈ 12 µM)	MIC [1, 15]: 0.125 to 1 µg/mL (≈ 0.374 to 2.99 µM); MIC [1, 5]: 2 to 16 µg/mL (≈ 5.98 to 47.8 µM); MIC [1, 16]: 0.008 to 0.06 µg/mL (≈ 0.0239 to 0.179 µM)
CC[C@H]1OC(=O)[C@H](C)[C@@H](O[C@H]2C[C@@](C)(OC)[C@@H](O)[C@H](C)O2)[C@H](C)[C@@H](O[C@@H]2O[C@H](C)C[C@H](N(C)C)[C@H]2O)[C@](C)(OC)C[C@@H](C)C(=O)[C@H](C)[C@@H](O)[C@]1(C)O [Clarithromycin, clarithromycin]	32 (≈ 42.8 µM)	2 (≈ 2.67 µM)	> 128	0.06 (≈ 0.0802 µM)	>128.0	0.008 (≈ 0.0107 µM)	0.03 (≈ 0.0401 µM)	> 64	32 (≈ 42.8 µM)	0.008 (≈ 0.0107 µM)	> 64	> 64	> 64	1.8 to 4.5	0.03 (≈ 0.0401 µM)	0.03 (≈ 0.0401 µM)	0.03 (≈ 0.0401 µM)	0.016 (≈ 0.0214 µM)	0.03 (≈ 0.0401 µM)	0.03 (≈ 0.0401 µM)	
C[C@H]1COc2c(N3CCN(C)CC3)c(F)cc3c(=O)c(C(=O)O)cn1c23 [Levo]																					MIC ([3]; strain 1, mutations S133-A N138-S, None, S84-L): 0.5 µg/mL (≈ 1.38 µM); MIC ([3]; strain 2, mutations NONE, S458-L, S84-F, None): 0.25 µg/mL (≈ 0.692 µM); MIC ([3]; strain 3, mutations S84-I, None, S84-L): 1 µg/mL (≈ 2.77 µM); MIC ([3]; strain 4, mutations D83-N, S458-S-T459, S84-F D88-N, Q468-R): 0.5 µg/mL (≈ 1.38 µM); MIC ([3]; strain 5, mutations E88-K, G405-S, S84-Y, None): 1 µg/mL (≈ 2.77 µM); MIC ([3]; strain 6, mutations S84-R, D420-N, S84-L A117-E, None): 2 µg/mL (≈ 5.53 µM); MIC ([3]; strain 7, mutations S84-R, D420-N, S84-L A117-E, None): 2 µg/mL (≈ 5.53 µM); MIC ([3]; strain 8, mutations S84-R, D420-N, S84-L A117-E, None): 2 µg/mL (≈ 5.53 µM); MIC ([3]; strain 9, mutations S84-R N138-S, S458-A S474-N, S84-F D88-Y, None): 4 µg/mL (≈ 11.1 µM)
N[C@@H]1[C@H]2CN(c3nc4c(cc3F)c(=O)c(C(=O)O)cn4-c3ccc(F)cc3F)C[C@@H]12 [Tro]																					MICs ([3]; strain 1, GyrA S84→L, ParC S133→A N138→S, GyrB None, ParE None): 1 µg/mL; MICs ([3]; strain 2, GyrA S84→F, ParC None, GyrB None, ParE S458→L): 0.25 µg/mL; MICs ([3]; strain 3, GyrA S84→L, ParC S84→I, GyrB None, ParE None): 1 µg/mL; MICs ([3]; strain 4, GyrA S84→F D88→N, ParC D83→N, GyrB None, ParE T459→S): 0.5 µg/mL; MICs ([3]; strain 5, GyrA S84→Y, ParC E88→K, GyrB Q468→R, ParE G405→S): 1 µg/mL; MICs ([3]; strain 6, GyrA S84→L A117→E, ParC S84→R, GyrB None, ParE D420→N): 4 µg/mL; MICs ([3]; strain 7, GyrA S84→L A117→E, ParC S84→R, GyrB None, ParE D420→N): 4 µg/mL; MICs ([3]; strain 8, GyrA S84→L A117→E, ParC S84→R, GyrB None, ParE D420→N): 4 µg/mL; MICs ([3]; strain 9, GyrA S84→F D88→Y, ParC S84→R N138→S, GyrB None, ParE S458→A S474→N): 8 µg/mL
